Series [1] addresses T1, P2X7R (Rattus norvegicus, UniProt Q64663).
T1 sequence (Q64663 1-595): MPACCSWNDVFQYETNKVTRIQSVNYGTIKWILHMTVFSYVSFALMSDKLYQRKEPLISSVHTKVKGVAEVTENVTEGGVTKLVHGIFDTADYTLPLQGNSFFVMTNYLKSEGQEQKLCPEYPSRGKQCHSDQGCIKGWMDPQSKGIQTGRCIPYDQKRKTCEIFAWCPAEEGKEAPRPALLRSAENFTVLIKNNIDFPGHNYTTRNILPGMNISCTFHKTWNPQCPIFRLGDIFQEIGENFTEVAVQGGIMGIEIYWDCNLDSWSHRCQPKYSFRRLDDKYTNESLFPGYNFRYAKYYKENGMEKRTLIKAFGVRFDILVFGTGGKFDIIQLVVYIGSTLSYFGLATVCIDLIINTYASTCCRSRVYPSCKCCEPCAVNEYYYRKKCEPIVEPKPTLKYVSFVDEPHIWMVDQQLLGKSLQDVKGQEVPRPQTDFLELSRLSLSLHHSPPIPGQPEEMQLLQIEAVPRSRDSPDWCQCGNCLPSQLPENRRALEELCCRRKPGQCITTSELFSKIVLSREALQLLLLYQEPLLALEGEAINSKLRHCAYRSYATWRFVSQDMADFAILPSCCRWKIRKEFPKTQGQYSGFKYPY
As to conditions: concentrations of 10 to 300 μM; cited from earlier work.

Series [2] has as its system P2X7R. The settings on record: cited from earlier work.
Series [3] has as its target T2, P2X7R (Homo sapiens, UniProt Q99572).
T2 sequence (Q99572 1-595): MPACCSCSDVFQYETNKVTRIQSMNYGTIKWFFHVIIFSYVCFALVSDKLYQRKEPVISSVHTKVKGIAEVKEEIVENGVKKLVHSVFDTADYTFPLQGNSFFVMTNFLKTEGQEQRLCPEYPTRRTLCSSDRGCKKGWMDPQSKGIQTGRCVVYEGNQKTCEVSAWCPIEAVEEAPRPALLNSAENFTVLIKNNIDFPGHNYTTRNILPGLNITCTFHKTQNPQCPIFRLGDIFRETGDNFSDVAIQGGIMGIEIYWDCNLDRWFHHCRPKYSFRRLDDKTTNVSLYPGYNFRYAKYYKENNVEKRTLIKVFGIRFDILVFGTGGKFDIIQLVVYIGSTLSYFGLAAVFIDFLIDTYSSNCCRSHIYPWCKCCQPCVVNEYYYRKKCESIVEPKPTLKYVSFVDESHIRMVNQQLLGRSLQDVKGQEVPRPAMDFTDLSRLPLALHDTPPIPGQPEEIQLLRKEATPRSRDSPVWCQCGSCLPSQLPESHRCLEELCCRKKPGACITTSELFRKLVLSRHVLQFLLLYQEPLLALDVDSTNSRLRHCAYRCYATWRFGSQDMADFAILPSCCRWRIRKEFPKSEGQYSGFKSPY
As to conditions: dose response curve, Y-axis ion current; cited from earlier work.

Another series has as its system DBA/201a mice. Put plainly: Porsolt's forced swim test after intrahippocampal P2X7R antagonists. Format: in vivo, mouse. The settings on record: 100 nM KN-62 or 10 μM oATP, 1 μl each side, dentate gyrus, 24 hours after injection. The text has this: In the present example, the P2X7R antagonists were directly injected into the dentate gyrus region of the hippocampus. Briefly, three months old male mice were bilaterally implanted with guide cannulae (23 gauge, length 8 mm) by means of a stereotactic instrument (David Kopf Instruments). The coordinates, in relation to bregma, were −1.5 mm posterior, ±1.0 mm lateral, and −0.8 mm ventral. Mice were allowed to recover for 10 to 13 days after surgery. Following this recovery period, mice were injected with 1 μl vehicle solution (0.01% DMSO, Sigma), or 100 nM KN-62 (Sigma, prepared in 0.01% DMSO), or 10 μM oATP (Sigma, prepared in PBS) in each side of the brain over a period of 60 seconds. All injections were performed using a 9 mm-31 gauge needle inserted into the guide cannulae and connected via tubing to a 10 μl Hamilton syringe.
The behaviour of individual mice was assessed using the Porsolt's forced swim test 24 hours after injection of vehicle solution, KN-62, or oATP. A pre-exposure of 5 minutes to the test was performed 15-17 minutes after administration of vehicle, KN-62, or oATP. A description of the Porsolt's forced swim test is given in example 9. […] Observed results were verified statistically using one-way MANOVA test.

For series [4], the system named is mice. Put plainly: Porsolt's forced swim test after long-term paroxetine. As to conditions: paroxetine 10 mg/kg twice per day by gavage, 28 days, male mice. Format: in vivo, mouse. The procedure:
Further validation of role of P2X7R in affective disorders was performed by examining its expression pattern in response to stress and treatment with antidepressant drugs. […] In parallel, a control group of mice was given vehicle solution (i.e. without paroxetine) using the same treatment regiment while a second control group of mice was left undisturbed and stress-free (i.e. untreated) during the same period of the experiments. At the end of the long-term treatment, part of the mice of each experimental group were tested in the dark/light box (test of anxiety behaviour) and in the Porsolt's forced swim test (test of depressive-like behaviour) to confirm the effectiveness of the treatment (FIG. 5). […] The other part of the experimental groups (i.e. mice without test experience) were decapitated, brains rapidly removed and frozen at −80° C. until usage.

In series [5] the target is T2, P2X7R. Nature of the series: Calcium entry (Fluo-4 AM) in HT-22 cells overexpressing human P2X7R. Format: cell-based. Details: expressed in transfected cells. The settings on record: 20 μM BzATP or 50 μM tenidap. The source says:
Yet another method for identifying P2X7R agonists was devised by generating a immortalised mouse cell line that overexpresses the human P2X7R gene under the control of the human cytomegalovirus (CMV) early promoter/enhancer region. The human P2X7R cDNA was inserted into the pcDNA3.1 vector (Invitrogen) and transfected into the mouse hippocampal cell line HT-22 using Lipofectamine (Invitrogen) according to the manufacturer's specifications. One day after transfection, culture medium containing 500 μg/ml G418 was added to the cells. Resistant clones were separately isolated and cultured 14 days after applying the selection medium.
The agonistic activity of a compound was evaluated by measuring calcium entry in the cells that overexpress the human P2X7R. Cells were cultured in 96 well plates and incubated at 37° C. with 5% CO2 DMEM with 10% foetal calf serum (Gibco) until they reached confluence. Cells were then loaded for one hour with 10 μM of Fluo-4 AM (Molecular Probes). Fluo-4 AM is a fluorescent dye that binds to intracellular calcium. […] Agonist activity was detected by measuring an increase in calcium influx which results in increased binding to Fluo-4 AM and increased fluorescence. Changes in fluorescence signal are measured using a Fluostar Optima plate reader (BMG biotech). […] Thus, both compound stimulated the activity of P2X7R which results in an influx of ions into the cells.

The test system of series [6] is P2X7R. Nature of the series: P2X7R protein expression by immunohistochemistry after siRNA injection. Format: in vivo, mouse. The source says:
At the end of the experiment, the mice were sacrificed and the brains were examined to confirm the location and efficiency of the siRNA injections. For this purpose the brains were cut into sections and the slides were stained by immunohistochemistry using the above mentioned protocols. Brains from mice injected with the specific double stranded siRNA, with control double stranded RNA and with vehicle were examined in parallel. Under these conditions, the specific siRNA directed against P2X7R injected near the dentate gyrus induced on average an 80% inhibition of P2X7R protein expression as compared to the samples from mice injected with vehicle or with control double stranded RNA. […] This inhibition produced behavioural changes indicating a causative role for P2X7R in affective disorders.

Series [7] deals with mice. Nature of the series: Porsolt's forced swim test after intrahippocampal siRNA. Format: in vivo, mouse. As to conditions: 0.1 nmol/μl, 1 μl per side, dentate gyrus, 24 hours and 48 hours after infusion. The source says: According to the observed expression pattern of P2X7R in the hippocampus (FIGS. 9, 10, and 11) and the known involvement of the hippocampus in depression, the dentate gyrus (hippocampus) was selected as target region for siRNA application. Male, naive mice were bilaterally implanted with a guide cannulae (23 gauge, length 8 mm) by means of a stereotactic instrument. The coordinates, in relation to bregma, were −2.0 mm posterior, ±1.0 mm lateral, and −1.0 mm ventral. Following a recovery period of 5 days, the mice were divided into three experimental groups: vehicle (veh), control double stranded RNA (control), and P2X7R specific double stranded siRNA (siRNA). Sequences used for P2X7R siRNA are 5′-[…]-3′ and 5′-[…]-3′. Both sequences and were annealed and injected together as a double stranded RNA. On day 6 after surgery, mice were slightly anaesthetized with Isofluran and injections of siRNA were carried out. […]
The effects of P2X7R inhibition on depressive-like behaviour was assessed 24 hours and 48 hours after infusion of siRNA, control or vehicle according to the standard test paradigm, the Porsolt's forced swim test (Porsolt et al., Arch. Int. Pharmacodym. 229 (1977), 327-336; Porsolt, Rev. Neurosci. 11 (2000), 53-58). […] Compared to vehicle application, no influence of control double stranded RNA (5′-[…]-3′) on floating behaviour (passive stress coping) was detected. […]

Here are results for 8 compounds from US20060110385A1, “Means and methods for diagnosing and treating affective disorders” (Affectis Pharmaceuticals AG, priority 2003, published 2006).

What is called EC50 is the midpoint of the concentration-response curve.

Bounds are passed on as bounds.

Consider `CC(C)NCC(O)COc1cccc2ccccc12` (racemic) [DL-propanolol], for which, at P2X7R [1], the “opening of the cation channel activity of P2X7R” value (“opening” below) was “without affecting the opening of the cation channel activity of P2X7R” and the “pore-forming activity of P2X7R” value is recorded as “inhibit the pore-forming activity of P2X7R”.
With `Nc1ncnc2c1ncn2[C@@H]1O[C@H](COP(=O)(O)OP(=O)(O)OP(=O)(O)O)[C@@H](O)[C@H]1O` [ATP], the “levels of ATP required to achieve activation” value in the series on P2X7R [2] is recorded as above 1 mM. For the same compound, the EC50 at P2X7R [3] was 300 µM.
Consider `CC(C)NC[C@@H](O)COc1cccc2ccccc12` [D-propanolol], for which, at P2X7R [1], the “opening” value was “without affecting the opening of the cation channel activity of P2X7R” and the “pore-forming activity of P2X7R” value is “inhibit the pore-forming activity of P2X7R”.
Consider `CN([C@@H](Cc1ccc(OS(=O)(=O)c2cccc3cnccc23)cc1)C(=O)N1CCN(c2ccccc2)CC1)S(=O)(=O)c1cccc2cnccc12` [KN-62, 1-(N,O-bis[5-isoquinolinesulphonyl]-N-methyl-L-tyrosyl)-4-phenylpiperazine], for which, in the series with DBA/201a mice, the “active escape attempts (time, frequency, latency of struggling)” value is given as “no changes” and the “passive behaviour (time, frequency, latency of floating)” value was “no changes”.
For `CC(CCc1ccccc1)NCC(O)c1ccc(O)c(C(N)=O)c1` (stereo not shown) [labetolol], on P2X7R [1], the “opening” value is “without affecting the opening of the cation channel activity of P2X7R” and the “pore-forming activity of P2X7R” value was “inhibit the pore-forming activity of P2X7R”.
As for `Fc1ccc([C@@H]2CCNC[C@H]2COc2ccc3c(c2)OCO3)cc1` [paroxetine], in the series with mice [4], the “passive stress coping behaviour (floating) in the forced swim test” value is recorded as “decreased”.
`NC(=O)N1C(=O)/C(=C(\O)c2cccs2)c2cc(Cl)ccc21` [tenidap, 5-chloro-2,3-dihydro-2-oxo-3-(2-thienylcarbonyl)-indole-1-carboxamide]: the “fluorescence intensity (calcium influx, Fluo-4 AM)” value at P2X7R [5] is given as “rapid increase in fluorescence intensity”.
Turning to “P2X7R specific siRNA: double stranded siRNA, 5′-GUGGGUCUUGCACAUGAUCTT-3′ annealed with 5′-GAUCAUGUGCAAGACCCACTT-3′ (chemistry not given here)”, in the series with P2X7R [6] (injected near the dentate gyrus, compared to vehicle or control double stranded RNA), the “inhibition of P2X7R protein expression” value came to 80%. The “local inflammation or infiltration at the hippocampus” value in the series with P2X7R [6] (intrahippocampal injection) is on record as “did not produce any sign of local inflammation or infiltration”. For the same compound, the “passive (floating) behaviour in the forced swim test” value in the series with mice [7] is on record as “significant increase in passive behaviour”; in the series with mice [7] (listed as siRNA targeting P2X7R), “increased”.
